In patent publication US12319915B2, “Cytotoxic fluoropyrimidine polymers and methods of use thereof” (Wake Forest University Health Sciences, priority 2018, dated 2025):

Assays:
COLO205 = experiment: NCI60 cell line screen, COLO205; type: cell-based; conditions: Homo sapiens, COLO 205; COLO205, NCI 60 cell line screen
HCT-116 = experiment: NCI60 cell line screen, HCT-116; type: cell-based; conditions: Homo sapiens; HCT-116, NCI 60 cell line screen
HT-29 = experiment: NCI60 cell line screen, HT-29; type: cell-based; conditions: Homo sapiens; HT-29, NCI 60 cell line screen
HCT-15 = experiment: NCI60 cell line screen, HCT-15; type: cell-based; conditions: Homo sapiens; HCT-15, NCI 60 cell line screen
SW620 = experiment: NCI60 cell line screen, SW620; type: cell-based; conditions: Homo sapiens, SW-620; SW620, NCI 60 cell line screen
HCC2998 = experiment: NCI60 cell line screen, HCC2998; type: cell-based; conditions: Homo sapiens, HCC 2998; HCC2998, NCI 60 cell line screen
KM-12 = experiment: NCI60 cell line screen, KM-12; type: cell-based; conditions: Homo sapiens, KM12; KM-12, NCI 60 cell line screen
[1] = target: T1, thymidylate synthase (TS) (Homo sapiens, UniProt P04818); experiment: Thymidylate synthase activity in lysates of treated HCT116 cells; type: cell-based; conditions: HCT-116 cells, 100 nM
T1 construct: Cell lysate aliquots (400 μg of protein) were added to the reaction buffer; endogenous in cells; host or cells: HCT116 human colorectal cancer cells
Method: Thymidylate Synthase Activity. TS activity assays were performed using well-established procedures. HCT116 cells were plated at a density of 1.0-1.5×10^6 cells in […] plates. Cells were grown overnight in DMEM media with 10% FBS to allow the cells to adhere and begin to grow. Drugs were then added to the medium and the cells were incubated for the indicated time (24 h or 48 h). Cells were then harvested in 25 mM Tris-HCl, pH 7.4 with Complete Protease Inhibitor Cocktail present (as per instructed, Roche), put through two freeze/thaw cycles, and vigorously vortexed. The lysates were centrifuged at 10,000×g for 10 min at 4° C. The supernatants were assayed for protein concentration and TS catalytic activity. TS catalytic assays were performed in a final volume of 200 μL containing freshly prepared 75 μM 5,10 methylene tetrahydrofolate in 0.5 M NaOH (Schircks Laboratories, Switzerland), 10 μM dUMP, 200,000 dpm of 3H-dUMP (Moravek Biochemicals), 100 μM 2-mercaptoethanol, and 25 mM KH2PO4, pH 7.4. Cell lysate aliquots (400 μg of protein) were added to the reaction buffer and lysis buffer was used to adjust the final volume. The reaction mixture was incubated at 37° C. for 30 min, then stopped by addition of 100 μL of ice-cold, 20% TCA. Stopped reactions were maintained 5 min on ice. […] Reactions were then centrifuged, and aliquots of the supernatant were read by scintillation counting.

[2] = tested on: HCT-116-luc orthotopic xenografts
Description: Orthotopic Colorectal Model. Protocol was followed per Tseng et al.'s previous study (Tseng W. et al., Vis Exp, 2007 (10): p. 484). A xenograft tumor was formed as described above using HCT116-luc cells. Once the tumor reached a size large enough for transplantation, mice were euthanized and tumor tissue was removed. The tumor was divided into 2-3 mm pieces and placed in PBS on ice. BALB/c mice were put under anesthesia, and the abdomen was prepped with a betadine solution. A laparotomy was performed in the abdomen and the cecum was exposed. The cecal wall was slightly damaged to allow cell invasion. A piece of tumor tissue was then attached to the outside of the cecum by a figure-8 stitch using a 9-O-nylon suture. The cecum is returned to the cavity and the abdomen wall is closed up using 6-0 coated vycryl sutures. A rectal thermometer monitored the internal temperature of the mice during surgery. Mouse recovery was monitored closely and mice were given Meloxicam every day for 3 days to alleviate pain along with normal saline to keep the mice hydrated. Tumor volume and cell progression was monitored using an IVIS live imaging system for evaluated total proton flux. […] CF10 was dosed 2×/week every week at 360 mg/kg (n=8 study 1; n=2 in study 2). All drugs, or vehicle (0.9% saline; n=8 study 1; n=6 study 2) were administered by i.p. injection in 200 μL volume.
Animal Imaging. Pierce D-Luciferin (Thermo Scientific) was injected subcutaneous using a 28-gauge needle 15 minutes before imaging. Mice were placed in an anesthesia chamber with 1.5% isoflurane and then transferred to the IVIS stage under 2% isoflurane using a nose cone placing the mice on their back. IVIS Lumina LT Series III machine was used for all mouse images. All images were analyzed at the end of the time experiment using the same Living Image software. A region of interest was placed on the mouse′ midsection and determined the total flux in that region. The region of interest remained identical for each mouse. Graphs were plotted as total flux per mouse for each week.
Statistical Analysis. All statistical analyses were conducted using SAS 9.4 using a mixed models approach. Baseline flux from IVIS imaging measurement, group, time and group-by-time interaction were included as fixed effects. The animals were included as random effects to account for the within animal correlation. Survival differences among treatment groups were determined using a log-rank test.
Histology Analysis. Tissues from select mice from all treatment groups were removed from animals after undergoing euthanasia by intra-cardiac administration of KCl solution. In some instances, mice were injected with luciferin ˜20 min prior to euthanasia and tissue extraction to permit IVIS imaging of extracted tissue. Tumors were weighed after removal and in instances where there was suspicion of possible metastases to liver, lung, or other organs tissue from these organs was removed and if luciferin was administered prior to euthanasia, these tissues were imaged using the IVIS system. All tissues were fixed in 10% neutral buffered formalin for 24 h followed by transfer to 70% ethanol. Following routine processing in xylene, tissues were sectioned at 4 μm and stained with Hematoxylin and Eosin and evaluated by light microscopy by a veterinary pathologist.

HCT-116 cells = experiment: cells; conditions: Homo sapiens, HCT-116, 96 h, read-out: potency (cytotoxicity) to HCT-116 cells
Description: Cell Lines and Drugs. HCT-116 human CRC cells were supplied by GRCF Biorepository & Cell Center (Johns Hopkins University). HCT116 cells were infected with UBC-GFPLuc-LV by the Cell and Viral Vector Laboratory at Wake Forest School of Medicine to generate luciferase-expressing HCT116-luc cells. These cells also express GFP. All human CRC cell lines were maintained in Dulbecco's Modified Eagle Medium (DMEM; Lonza, Switzerland) supplemented with 10% fetal bovine serum (FBS; Sigma, St. Louis, Missouri). Cell lines were cultured in conditions of 37° C. and 5% CO2 and were confirmed negative for mycoplasma.
Cell Culture. Cells were seeded in 96-well plates at the appropriate density in 200 μL medium and incubated for 37° C. overnight for cell attachment. […] Compounds were serially-diluted in either water or DMSO (final DMSO percentage<1%) to a stock concentration, and an equal amount of drug was added to the exponentially growing cells for each tested concentration. All drugs were filtered in 0.22 μm filter before use.
Cell Viability. CellTiter-Glo (Promega, Wisconsin) was used to determine cell viability. Assays were performed according to the manufacturer's instructions. Cell viability was normalized and calculated as a relative percentage of the averaged vehicle control.

[3] = cited from earlier work
HCT-116 flank tumors = experiment: HCT-116 flank xenograft model; conditions: 5-FU 70 mg/kg i.p. 2× per week every other week
Method: Animal Model. […] All of the animal experiments were performed on six-to-eight-week-old female BALB/c mice.
Xenograft Model. HCT116 cells (3×10^6 cells) were suspended in ice-cold PBS and mixed 1:1 with Matrigel and subcutaneously injected into the flanks of Balb/nude mice. Tumor growth and mice health were monitored daily until the tumor reached a volume of 100-200 mm^3 (about two weeks). Tumor measurements were taken using electronic digital calipers twice a week, along with mouse weight. Tumor volume (V) was calculated as V=π/6 (L×W^2). 5-FU (70 mg/kg 2×/wk every other week) or CF10 (300 mg/kg) were dosed by intraperitoneal (i.p.) injection using a 28-gauge needle. Mice requiring removal from study due to large tumor burden or weight-loss were euthanized in accord with AVMA guidelines.

T1 sequence (P04818 2-313 limits assumed): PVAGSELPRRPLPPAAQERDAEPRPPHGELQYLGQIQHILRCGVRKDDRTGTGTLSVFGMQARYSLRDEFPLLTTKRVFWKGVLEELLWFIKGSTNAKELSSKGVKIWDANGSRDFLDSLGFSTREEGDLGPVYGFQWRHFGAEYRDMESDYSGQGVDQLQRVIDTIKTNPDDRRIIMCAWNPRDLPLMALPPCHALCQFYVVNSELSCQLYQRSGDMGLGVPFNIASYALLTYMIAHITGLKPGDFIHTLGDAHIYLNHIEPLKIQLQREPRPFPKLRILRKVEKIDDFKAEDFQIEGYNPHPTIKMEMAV

O=c1[nH]cc(F)c(=O)[nH]1 [5-FU, 5-fluorouracil]
GI50 (COLO205): 6.92 µM
GI50 (HCT-116): 4.07 µM
GI50 (HT-29): 6.76 µM
GI50 (HCT-15): 5.62 µM
GI50 (SW620): 28.2 µM
GI50 (HCC2998): 1.51 µM
GI50 (KM-12): 8.71 µM
TS enzymatic activity ([1]; 24 h): reduced TS activity
TS enzymatic activity ([1]; 48 h): ~75 % control values
primary tumor weight ([2]; 5-FU average at week 5, CF10 one mouse at week 8): 1.0 g
mice with putative metastatic tissue ([2]; autopsy at week 5): 2/4
tolerability ([2]; mouse, in vivo, ip, 100 mg/kg): toxic
effect on survival ([2]; orthotopic HCT-116-luc): no significant effect on survival
median survival ([2]; orthotopic HCT-116-luc, i.p.): 31 days
tumor growth (rate of change in flux, IVIS) ([2]; orthotopic HCT-116-luc, i.p.): decrease tumor growth relative to control
IC50 (HCT-116 cells): 21 µM
half-life [3]: ~15 min
day post-treatment by which all mice required euthanasia (HCT-116 flank tumors): ≤ 16 days
weight loss (HCT-116 flank tumors; CF10 300 mg/kg i.p. 2×/week): greater weight loss than mice in the other treatment groups
